Here are results for 37 compounds from ChEMBL document CHEMBL1132024, “N-phosphonoalkyl-5-aminomethylquinoxaline-2,3-diones: in vivo active AMPA and NMDA(glycine) antagonists” (Bioorg Med Chem Lett, 1999).

Data set [1] deals with Mus musculus. Nature of the data set: In vivo anticonvulsant effects on electroshock induced convulsion in mice after i.p. administration and 30 min pretreatment. It is filed as functional. The settings on record: ip.
In data set [2] the target is Glutamate receptor ionotropic, AMPA (Rattus norvegicus, UniProt P19490+P19491+P19492+P19493). Nature of the data set: (§1) In vitro inhibition of binding of [3H]AMPA towards AMPA receptor in rat.
The target of the next data set is Glutamate NMDA receptor. Nature of the data set: In vitro inhibition of binding of [3H]MDL-105519 towards glycine binding site of NMDA receptor in rat.
Data set [3] deals with Glutamate receptor ionotropic, AMPA (Rattus norvegicus) (UniProt P19491+P19492+P19493+P19490). The data set is described as §1. As to conditions: concentration not given here; call rule not given here.
The subject of data set [4] is Mus musculus. Nature of the data set: In vivo anticonvulsant effects in the electroshock induced convulsion in mice after 50 mg/kg intraperitoneal administration and 30 min pretreatment time. It is filed as functional.
Data set [5] has as its system Mus musculus. Nature of the data set: In vivo anticonvulsant effects in the electroshock induced convulsion in mice after 50 mg/kg intraperitoneal administration and 1 hr pretreatment time. The class given is functional.
The test system of data set [6] is Mus musculus. Nature of the data set: In vivo anticonvulsant effects in the electroshock induced convulsion in mice after intraperitoneal administration and 1 hr pretreatment time. The class given is functional. The settings on record: ip.
Data set [7] is described as follows: Partition coefficient (logP). The settings on record: octanol/water. It is filed as physicochemical.
Data set [8] concerns the target Glutamate receptor ionotropic, NMDA 1 (Rattus norvegicus) (UniProt P35439). Nature of the data set: In vitro inhibition of binding of [3H]MDL-105519 towards glycine binding site of NMDA receptor in rat at a concentration of 1 uM.
The subject of data set [9] is Mus musculus. Nature of the data set: In vivo anticonvulsant effects in the electroshock induced convulsion in mice after intraperitoneal administration and 2 hr pretreatment time. It is filed as functional. As to conditions: ip.
Data set [10] concerns the target Glutamate receptor ionotropic, NMDA 1 (Rattus norvegicus) (UniProt P35439). Nature of the data set: In vitro inhibition of binding of [3H]MDL-105,519 towards glycine binding site of NMDA receptor in rat. As to conditions: concentration not given here.
For data set [11], the system named is Mus musculus. Nature of the data set: In vivo anticonvulsant effects in the electroshock induced convulsion in mice after intraperitoneal administration and 15 min pretreatment time. The settings on record: ip. The class given is functional.
The target of data set [12] is Glutamate receptor ionotropic, AMPA (Rattus norvegicus, UniProt P19491+P19492+P19493+P19490). Nature of the data set: In vitro inhibition of binding of [3H]-AMPA towards AMPA receptor in rat; No affinity.

Structures are written as SMILES.

Chain of Glutamate receptor ionotropic, AMPA (Rattus norvegicus, UniProt P19491+P19492+P19493+P19490) (P19491 whole entry): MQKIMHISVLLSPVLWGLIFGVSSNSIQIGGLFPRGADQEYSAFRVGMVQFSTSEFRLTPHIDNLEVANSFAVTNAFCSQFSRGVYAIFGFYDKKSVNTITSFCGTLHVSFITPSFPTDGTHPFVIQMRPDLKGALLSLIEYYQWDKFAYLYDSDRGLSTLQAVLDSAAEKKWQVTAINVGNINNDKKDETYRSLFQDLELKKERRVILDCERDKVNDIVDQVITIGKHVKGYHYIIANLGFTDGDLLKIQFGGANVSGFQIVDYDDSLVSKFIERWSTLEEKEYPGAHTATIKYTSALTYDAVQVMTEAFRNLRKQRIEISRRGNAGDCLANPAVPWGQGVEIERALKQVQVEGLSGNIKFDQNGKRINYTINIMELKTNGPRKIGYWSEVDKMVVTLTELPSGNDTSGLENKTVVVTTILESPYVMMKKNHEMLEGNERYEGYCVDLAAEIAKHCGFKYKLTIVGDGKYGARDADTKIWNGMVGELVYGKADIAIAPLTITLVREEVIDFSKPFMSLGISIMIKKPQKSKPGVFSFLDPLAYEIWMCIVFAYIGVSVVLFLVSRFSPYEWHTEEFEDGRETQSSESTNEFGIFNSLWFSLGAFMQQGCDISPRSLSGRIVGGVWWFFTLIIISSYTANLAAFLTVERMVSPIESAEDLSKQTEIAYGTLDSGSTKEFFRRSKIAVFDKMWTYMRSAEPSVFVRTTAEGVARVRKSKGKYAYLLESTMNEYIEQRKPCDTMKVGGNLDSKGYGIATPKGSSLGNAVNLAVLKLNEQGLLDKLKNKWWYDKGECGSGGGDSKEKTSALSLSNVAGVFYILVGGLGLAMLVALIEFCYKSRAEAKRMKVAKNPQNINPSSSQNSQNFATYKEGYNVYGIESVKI
Chain of Glutamate receptor ionotropic, AMPA (Rattus norvegicus, UniProt P19491+P19492+P19493+P19490) (P19492 whole entry): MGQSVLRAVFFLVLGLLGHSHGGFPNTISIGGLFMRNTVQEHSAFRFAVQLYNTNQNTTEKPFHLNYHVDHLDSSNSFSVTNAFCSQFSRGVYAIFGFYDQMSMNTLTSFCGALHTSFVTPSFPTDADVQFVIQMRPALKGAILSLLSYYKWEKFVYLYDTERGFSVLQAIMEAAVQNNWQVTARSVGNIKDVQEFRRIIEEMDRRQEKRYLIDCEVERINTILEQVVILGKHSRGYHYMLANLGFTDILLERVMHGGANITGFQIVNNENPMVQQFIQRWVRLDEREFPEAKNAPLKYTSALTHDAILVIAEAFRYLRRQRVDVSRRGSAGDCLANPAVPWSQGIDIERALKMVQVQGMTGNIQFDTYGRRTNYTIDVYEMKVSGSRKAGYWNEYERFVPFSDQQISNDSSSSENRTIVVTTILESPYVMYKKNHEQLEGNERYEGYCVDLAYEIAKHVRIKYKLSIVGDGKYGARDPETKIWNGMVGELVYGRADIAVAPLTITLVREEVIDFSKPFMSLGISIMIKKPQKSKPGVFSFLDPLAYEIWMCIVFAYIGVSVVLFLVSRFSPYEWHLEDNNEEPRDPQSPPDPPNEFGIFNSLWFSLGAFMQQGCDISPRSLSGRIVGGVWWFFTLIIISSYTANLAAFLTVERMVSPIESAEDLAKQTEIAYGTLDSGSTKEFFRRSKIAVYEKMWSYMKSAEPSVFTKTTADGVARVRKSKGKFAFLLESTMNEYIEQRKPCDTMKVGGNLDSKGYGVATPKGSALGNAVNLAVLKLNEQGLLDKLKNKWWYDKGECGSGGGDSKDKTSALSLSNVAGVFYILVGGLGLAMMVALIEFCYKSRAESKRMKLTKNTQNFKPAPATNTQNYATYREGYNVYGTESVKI
Chain of Glutamate receptor ionotropic, AMPA (Rattus norvegicus, UniProt P19491+P19492+P19493+P19490) (P19493 whole entry): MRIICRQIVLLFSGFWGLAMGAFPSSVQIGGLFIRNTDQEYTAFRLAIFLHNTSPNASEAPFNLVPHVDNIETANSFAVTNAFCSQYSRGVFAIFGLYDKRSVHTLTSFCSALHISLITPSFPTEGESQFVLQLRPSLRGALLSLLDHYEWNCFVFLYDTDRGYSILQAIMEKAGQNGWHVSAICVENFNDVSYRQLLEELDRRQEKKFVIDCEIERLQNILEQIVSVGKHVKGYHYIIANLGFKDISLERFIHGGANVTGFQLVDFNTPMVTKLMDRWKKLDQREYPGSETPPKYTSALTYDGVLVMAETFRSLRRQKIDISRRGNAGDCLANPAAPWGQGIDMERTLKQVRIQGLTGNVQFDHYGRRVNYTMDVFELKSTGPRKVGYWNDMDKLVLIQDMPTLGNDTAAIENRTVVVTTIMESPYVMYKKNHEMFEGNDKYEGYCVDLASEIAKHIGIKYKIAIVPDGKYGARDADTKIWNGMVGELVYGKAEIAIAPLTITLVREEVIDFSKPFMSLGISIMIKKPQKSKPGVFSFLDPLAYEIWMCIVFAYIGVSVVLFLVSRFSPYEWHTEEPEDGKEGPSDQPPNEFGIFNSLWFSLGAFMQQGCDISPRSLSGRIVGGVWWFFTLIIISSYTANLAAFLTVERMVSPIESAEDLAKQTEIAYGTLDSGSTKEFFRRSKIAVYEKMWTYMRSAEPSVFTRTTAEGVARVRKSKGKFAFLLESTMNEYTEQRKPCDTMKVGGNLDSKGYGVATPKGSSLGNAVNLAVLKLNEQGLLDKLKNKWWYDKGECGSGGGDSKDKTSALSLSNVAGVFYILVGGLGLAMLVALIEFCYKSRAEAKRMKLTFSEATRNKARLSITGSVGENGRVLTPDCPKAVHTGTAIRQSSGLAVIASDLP
Chain of Glutamate receptor ionotropic, AMPA (Rattus norvegicus, UniProt P19491+P19492+P19493+P19490) (P19490 whole entry): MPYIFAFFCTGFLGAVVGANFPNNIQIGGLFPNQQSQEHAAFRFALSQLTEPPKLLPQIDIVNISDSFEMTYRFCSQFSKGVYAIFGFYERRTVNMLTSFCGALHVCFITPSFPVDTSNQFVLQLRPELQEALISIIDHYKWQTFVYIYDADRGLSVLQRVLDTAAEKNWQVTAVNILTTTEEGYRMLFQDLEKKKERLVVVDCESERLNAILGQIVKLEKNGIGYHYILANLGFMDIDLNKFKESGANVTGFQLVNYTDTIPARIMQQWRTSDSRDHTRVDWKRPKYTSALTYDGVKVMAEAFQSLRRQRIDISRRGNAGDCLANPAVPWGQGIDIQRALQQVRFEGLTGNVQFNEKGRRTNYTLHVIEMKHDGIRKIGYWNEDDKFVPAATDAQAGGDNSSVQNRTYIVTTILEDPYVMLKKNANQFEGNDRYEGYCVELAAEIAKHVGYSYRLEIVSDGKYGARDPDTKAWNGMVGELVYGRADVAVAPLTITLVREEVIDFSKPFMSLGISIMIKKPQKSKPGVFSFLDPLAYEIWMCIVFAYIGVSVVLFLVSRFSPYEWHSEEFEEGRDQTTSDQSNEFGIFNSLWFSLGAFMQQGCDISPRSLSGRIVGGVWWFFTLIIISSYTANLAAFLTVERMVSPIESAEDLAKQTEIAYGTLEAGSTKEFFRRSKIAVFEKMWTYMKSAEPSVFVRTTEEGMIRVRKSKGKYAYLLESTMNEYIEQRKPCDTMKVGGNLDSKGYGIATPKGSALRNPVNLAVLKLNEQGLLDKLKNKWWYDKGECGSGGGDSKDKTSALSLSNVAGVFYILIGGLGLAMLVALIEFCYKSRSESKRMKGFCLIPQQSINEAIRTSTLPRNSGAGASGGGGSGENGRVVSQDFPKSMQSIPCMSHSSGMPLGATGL

On to `C[C@@H](NCc1cc(C(F)(F)F)cc2[nH]c(=O)c(=O)[nH]c12)P(=O)(O)O`, for which, in the data set with Mus musculus [1], the ED50 came out at 8 mg/kg. Moreover, the half-maximal inhibitory concentration (IC50) in data set [2] came to 1200 nM; at Glutamate NMDA receptor it was 6 nM.

On to `CCC(NCc1cc(Br)cc2nc(O)c(O)nc12)P(=O)(O)O` (centres undefined), for which, in data set [3], the inhibition amounted to 16%. On Glutamate NMDA receptor, this compound returned a 50% inhibitory concentration (IC50) of 45 nM. Also, the Protection in the data set with Mus musculus [4] worked out at 20%.

For `Br.C[C@H](NCc1cc([N+](=O)[O-])cc2nc(O)c(O)nc12)C(=O)O`, in the data set on Mus musculus [5], the Protection is listed as 0%. Also, in the data set with Mus musculus [6], the 50% effective dose (ED50) is 19 mg/kg. Moreover, in data set [7], the logP was -1.93. Further, the half-maximal inhibitory concentration (IC50) came out at 310 nM in data set [2] and 1700 nM at Glutamate NMDA receptor.

Regarding `C[C@@H](CP(=O)(O)O)NCc1cc([N+](=O)[O-])cc2nc(O)c(O)nc12`, the 50% effective dose (ED50) in the data set with Mus musculus [1] was 10 mg/kg. In data set [2], the half-inhibitory concentration (IC50) came out at 200 nM. In addition, the inhibition in data set [8] amounted to 15%.

Consider `CCN(Cc1cc([N+](=O)[O-])cc2nc(O)c(O)nc12)[C@@H](C)P(=O)(O)O`, for which the values for the ED50 in the data set on Mus musculus [1] and in the data set with Mus musculus [9] were 7 mg/kg and 18 mg/kg, respectively. Further, the log partition coefficient (logP) in data set [7] is -3.5. The same compound came in with a half-maximal inhibitory concentration (IC50) in [2] of 80 nM.

With `C[C@@H](NCc1cc(Br)cc2nc(O)c(O)nc12)C(=O)O`, the IC50 was 4500 nM in data set [2] and 120 nM on Glutamate NMDA receptor.

For `C[C@H](NCc1cc(C(F)(F)F)cc2nc(O)c(O)nc12)P(=O)(O)O`, in the data set on Mus musculus [1], the ED50 is 20 mg/kg. Further, the 50% inhibitory concentration (IC50) stood at 540 nM in data set [2] and 590 nM at Glutamate NMDA receptor.

As for `Br.O=C(O)CCNCc1cc([N+](=O)[O-])cc2nc(O)c(O)nc12`, the median effective dose (ED50) in the data set on Mus musculus [1] came out at 35 mg/kg. The IC50 in data set [2] amounted to 380 nM; at Glutamate NMDA receptor it was 19000 nM.

In data set [2], `COC(=O)C(C)(C)NCc1cc([N+](=O)[O-])cc2nc(O)c(O)nc12` showed a 50% inhibitory concentration (IC50) of 1900 nM. Besides, in data set [8], the inhibition was -3%.

As to `C[C@@H](NCc1cc(Br)cc2nc(O)c(O)nc12)P(=O)(O)O`, the ED50 in the data set with Mus musculus [1] was 12 mg/kg; with Mus musculus [9], 18 mg/kg. Besides, the IC50 in data set [2] came to 3000 nM.

For `O=P(O)(O)CNCc1cc(Br)cc2nc(O)c(O)nc12`, the values for the concentration for half-maximal inhibition (IC50) (in [2]; at Glutamate NMDA receptor) were 2400 nM and 100 nM, respectively. In addition, the Protection with Mus musculus [4] is given as 0%.

Turning to `Br.CC(C)(NCc1cc([N+](=O)[O-])cc2nc(O)c(O)nc12)C(=O)O`, in data set [10], the inhibition was -9%. The IC50 in data set [2] was determined as 290 nM. Further, the Protection with Mus musculus [4] stood at 0%.

In the case of `C[C@H](CP(=O)(O)O)NCc1cc([N+](=O)[O-])cc2nc(O)c(O)nc12`, the ED50 with Mus musculus [1] came to 9 mg/kg. In data set [2], this compound gave a 50% inhibitory concentration (IC50) of 200 nM. Further, the inhibition in data set [8] was found to be 6%.

`C[C@@H](NCc1cc([N+](=O)[O-])cc2[nH]c(=O)c(=O)[nH]c12)[P+]([O-])(O)O`: the ED50 with Mus musculus [1] worked out at 3 mg/kg. Besides, the IC50 worked out at 170 nM in data set [2] and 32 nM on Glutamate NMDA receptor.

On to `O=C(O)CCNCc1cc(Br)cc2nc(O)c(O)nc12`, for which the IC50 in data set [2] came to 3800 nM. Moreover, in [8], the inhibition came out at 37%.

In the case of `CCN(Cc1cc([N+](=O)[O-])cc2nc(O)c(O)nc12)[C@H](C)P(=O)(O)O`, the 50% effective dose (ED50) in the data set with Mus musculus [1] turned out to be 26 mg/kg. This compound came in with an IC50 in [2] of 310 nM. Also, the inhibition in data set [8] came to 25%.

In the case of `O=C(O)COCc1cc([N+](=O)[O-])cc2nc(O)c(O)nc12`, the IC50 in data set [2] came to 2000 nM; at Glutamate NMDA receptor, 310 nM.

With `O=C(O)C1CCN(Cc2cc([N+](=O)[O-])cc3nc(O)c(O)nc23)CC1`, the ED50 in the data set on Mus musculus [1] is 44 mg/kg. Also, the IC50 in data set [2] is 70 nM; on Glutamate NMDA receptor it was 3900 nM.

For the compound `Br.C[C@@H](NCc1cc([N+](=O)[O-])cc2nc(O)c(O)nc12)C(=O)O`, the half-maximal inhibitory concentration (IC50) in data set [2] is 380 nM; on Glutamate NMDA receptor it was 1300 nM. Moreover, the Protection in the data set on Mus musculus [4] is reported as 0%.

Turning to `C[C@H](NCc1cc([N+](=O)[O-])cc2nc(O)c(O)nc12)P(=O)(O)O`, in the data set on Mus musculus [1], the 50% effective dose (ED50) was 8 mg/kg. The IC50 in [2] came to 380 nM. The inhibition in data set [8] was 51%.

With `Br.CCN(Cc1cc([N+](=O)[O-])cc2nc(O)c(O)nc12)CP(=O)(O)O`, the 50% effective dose (ED50) in the data set on Mus musculus [1] turned out to be 18 mg/kg. For the same compound, in data set [2], the IC50 stood at 120 nM. The inhibition in data set [8] worked out at 24%.

Turning to `O=c1[nH]c2cc([N+](=O)[O-])cc(CNCP(=O)(O)O)c2[nH]c1=O`, the ED50 in the data set with Mus musculus [1] came out at 7 mg/kg. The half-inhibitory concentration (IC50) in [2] was 290 nM; on Glutamate NMDA receptor, 1000 nM.

As for `O=[N+]([O-])c1cc(CNCCP(=O)(O)O)c2nc(O)c(O)nc2c1`, the median effective dose (ED50) in the data set with Mus musculus [1] amounted to 18 mg/kg. This compound also registered a half-inhibitory concentration (IC50) in data set [2] of 640 nM. The inhibition in [8] stood at 8%.

With `O=P(O)(O)CNCc1cc(C(F)(F)F)cc2nc(O)c(O)nc12`, in the data set on Mus musculus [1], the ED50 is 30 mg/kg. Moreover, the IC50 amounted to 2000 nM in [2] and 300 nM at Glutamate NMDA receptor.

Regarding `Br.CC[C@H](NCc1cc([N+](=O)[O-])cc2nc(O)c(O)nc12)C(=O)O`, the inhibition in data set [10] was found to be 34%. The same compound returned an IC50 in data set [2] of 1200 nM. In addition, in the data set on Mus musculus [4], the Protection is reported as 0%.

As to `Br.O=C(O)CNCc1cc([N+](=O)[O-])cc2nc(O)c(O)nc12`, in the data set on Mus musculus [11], the ED50 is 32 mg/kg. Moreover, the half-maximal inhibitory concentration (IC50) is 160 nM in data set [2] and 760 nM at Glutamate NMDA receptor.

In the case of `CCN(Cc1cc(C(F)(F)F)cc2nc(O)c(O)nc12)[C@@H](C)P(=O)(O)O`, the 50% effective dose (ED50) in the data set with Mus musculus [1] is 10 mg/kg. For the same compound, the figures for the half-maximal inhibitory concentration (IC50) (in data set [2]; on Glutamate NMDA receptor) were 68 nM and 4000 nM, respectively.

`NCc1ccc(NC(=O)C[C@@H]2CCc3cc(Cl)cc4[nH]c(=O)c(=O)n2c34)c(OCC(=O)O)c1`: the 50% inhibitory concentration (IC50) result was “Not Active” in data set [12] and 500 nM at Glutamate NMDA receptor.

As for `Br.O=C(O)CNCc1cc(Br)cc2nc(O)c(O)nc12`, the IC50 was found to be 4700 nM in [2] and 40 nM at Glutamate NMDA receptor. The Protection in the data set with Mus musculus [4] came to 0%.

With `O=C(O)CSCc1cc(Br)cc2nc(O)c(O)nc12`, the Protection with Mus musculus [5] worked out at 0%. In data set [3], the inhibition turned out to be 22%. This compound also had an IC50 at Glutamate NMDA receptor of 120 nM.

As to `Br.C[C@H](NCCc1cc([N+](=O)[O-])cc2nc(O)c(O)nc12)C(=O)O`, the inhibition in data set [10] was 22%. In [2], this compound displayed an IC50 of 340 nM. Further, the Protection in the data set on Mus musculus [4] is 0%.

For the compound `CC(OCc1cc([N+](=O)[O-])cc2nc(O)c(O)nc12)C(=O)O` (centres undefined), the values for the IC50 (in data set [2]; at Glutamate NMDA receptor) were 1300 nM and 420 nM, respectively.

On to `O=C(O)COCc1cc(Br)cc2nc(O)c(O)nc12`, for which the Protection with Mus musculus [5] came to 0%. The inhibition in [3] turned out to be 4%. Also, on Glutamate NMDA receptor, the concentration for half-maximal inhibition (IC50) stood at 110 nM.

`C[C@H](NCc1cc(Br)cc2nc(O)c(O)nc12)P(=O)(O)O`: the median effective dose (ED50) in the data set on Mus musculus [1] came out at 43 mg/kg. In [2], the concentration for half-maximal inhibition (IC50) amounted to 1400 nM.

With `C[C@H](NCc1cc(Br)cc2nc(O)c(O)nc12)C(=O)O`, the 50% inhibitory concentration (IC50) turned out to be 4300 nM in data set [2] and 2200 nM on Glutamate NMDA receptor.

`CC(=O)N(Cc1cc([N+](=O)[O-])cc2nc(O)c(O)nc12)C(C)P(=O)(O)O` (centres undefined) came in with a half-maximal inhibitory concentration (IC50) in data set [2] of 1300 nM. Besides, in data set [8], the inhibition came to 31%.

Consider `O=C(O)CCCNCc1cc([N+](=O)[O-])cc2nc(O)c(O)nc12`, for which the IC50 in data set [2] amounted to 610 nM; at Glutamate NMDA receptor, 9000 nM.

For orientation: ED50 means the dose at which the effect has come halfway, by size or by number of responders. Usually IC50 stands for the concentration needed to halve the response being measured. Higher therefore signals weaker potency in that assay. In general, inhibition refers to the drop in the measured response relative to a control, in per cent. For orientation: logP means a log measure of how a compound divides between an organic and an aqueous phase. Lower therefore signals lower lipophilicity.
